From patent publication US7462600B2, “Macrolides” (Pfizer Inc, priority 2004, dated 2008) come the findings set out here.

What all share (format): cell-based
In assay [1] the test system is Haemophilus influenzae 1218. Kind of assay: MIC, microtiter broth dilution (NCCLS M100-S14), H. influenzae 1218 (susceptible). As to conditions: Haemophilus influenzae 1218. The protocol:
(§1) The assay described herein includes a panel of bacterial strains assembled to include a variety of target pathogenic species, including representatives of macrolide resistance mechanisms that have been characterized. In many cases, both the macrolide-susceptible parent strain and the macrolide-resistant strain derived from it are available to provide a more accurate assessment of the compound's ability to circumvent the resistance mechanism. The assay is performed in microtiter trays and interpreted according to Performance Standards for Antimicrobial Susceptibility Testing; 14th Informational Supplement (M100-S14), published by The National Committee for Clinical Laboratory Standards (NCCLS) guidelines; the MIC is used to compare strains. Compounds are initially dissolved in DMSO as 40 mg/ml stock solutions.
Background: Dilution methods test growth across graded concentrations, often in twofold steps.

For assay [2], the system named is Streptococcus pyogenes 1079. Kind of assay: MIC, microtiter broth dilution (NCCLS M100-S14), S. pyogenes 1079 (ermB). As to conditions: Streptococcus pyogenes 1079. The procedure: as §1
The subject of assay [3] is Streptococcus pneumoniae 1016. Kind of assay: MIC, microtiter broth dilution (NCCLS M100-S14), S. pneumoniae 1016 (susceptible). As to conditions: Streptococcus pneumoniae 1016. The procedure:
as §1

Assay [4] relates to Streptococcus pneumoniae 1175. Particulars: Streptococcus pneumoniae 1175; microtiter broth dilution. The procedure:
as §1

The subject of assay [5] is Streptococcus pneumoniae 1095. As to conditions: Streptococcus pneumoniae 1095; microtiter broth dilution. The procedure:
as §1

≈ marks a conversion by molar mass, not a printed value.

Turning to `CCC1OC(=O)C(C)C(=O)C(C)C(OC2OC(C)CC(N(C)C)C2O)C(C)(OC)CC(C)C(=O)C(C)C2N(CC3CN(Cc4ccnc5ccccc45)C3)C(=O)OC12C` (stereo not shown) [4.13], in assay [1], the “MIC H. influenzae 1218” value stood at 1 µg/mL (≈ 1.22 µM). The “MIC S. pyogenes 1079” value in assay [2] is 32 µg/mL (≈ 38.9 µM). The “MIC S. pneumo. 1016” value in assay [3] is below 0.06 µg/mL. Besides, in assay [4], the “MIC S. pneumo. 1175” value was below 0.06 µg/mL. Further, in assay [5], the “MIC S. pneumo. 1095” value turned out to be 0.5 µg/mL (≈ 0.608 µM).
Turning to `CCC1OC(=O)C(C)C(=O)C(C)C(OC2OC(C)CC(N(C)C)C2O)C(C)(OC)CC(C)C(=O)C(C)C2N(CC3CN(Cc4cccc5ncccc45)C3)C(=O)OC12C` (stereo not shown) [4.15], in assay [1], the “MIC H. influenzae 1218” value was found to be 0.25 µg/mL (≈ 0.304 µM). Besides, the “MIC S. pyogenes 1079” value in assay [2] was determined as 32 µg/mL (≈ 38.9 µM). In addition, the “MIC S. pneumo. 1016” value in assay [3] was below 0.06 µg/mL. For the same compound, the “MIC S. pneumo. 1175” value in assay [4] was below 0.06 µg/mL. For the same compound, the “MIC S. pneumo. 1095” value in assay [5] was below 0.06 µg/mL.
Turning to `CCC1OC(=O)C(C)C(=O)C(C)C(OC2OC(C)CC(N(C)C)C2O)C(C)(OC)CC(C)C(=O)C(C)C2N(CC3CN(Cc4nc5ccccc5[nH]4)C3)C(=O)OC12C` (stereo not shown) [4.16], the “MIC H. influenzae 1218” value in assay [1] was 0.5 µg/mL (≈ 0.616 µM). Also, the “MIC S. pyogenes 1079” value in assay [2] was above 64.00 µg/mL. Also, the “MIC S. pneumo. 1016” value in assay [3] is below 0.06 µg/mL. In addition, the “MIC S. pneumo. 1175” value in assay [4] is 0.25 µg/mL (≈ 0.308 µM). Also, the “MIC S. pneumo. 1095” value in assay [5] was 2 µg/mL (≈ 2.46 µM).
For `CCC1OC(=O)C(C)C(=O)C(C)C(OC2OC(C)CC(N(C)C)C2O)C(C)(OC)CC(C)C(=O)C(C)C2N(CC3CN(Cc4cccc5nccnc45)C3)C(=O)OC12C` (stereo not shown) [4.17] the same measures were 0.25 µg/mL (≈ 0.303 µM), 64 µg/mL (≈ 77.7 µM), below 0.06 µg/mL, 0.12 µg/mL (≈ 0.146 µM) and 0.5 µg/mL (≈ 0.607 µM).
On the same counts, the results for `CCC1OC(=O)C(C)C(=O)C(C)C(OC2OC(C)CC(N(C)C)C2O)C(C)(OC)CC(C)C(=O)C(C)C2N(CC3CN(Cc4c[nH]c5cnccc45)C3)C(=O)OC12C` (stereo not shown) [4.19] are 0.5 µg/mL (≈ 0.616 µM), 64 µg/mL (≈ 78.8 µM), below 0.06 µg/mL, 1 µg/mL (≈ 1.23 µM) and below 0.06 µg/mL.
For the compound `CCC1OC(=O)C(C)C(=O)C(C)C(OC2OC(C)CC(N(C)C)C2O)C(C)(OC)CC(C)C(=O)C(C)C2N(CC3CN(Cc4cccc5nc[nH]c45)C3)C(=O)OC12C` (stereo not shown) [4.20], in assay [1], the “MIC H. influenzae 1218” value was determined as 0.25 µg/mL (≈ 0.308 µM). The “MIC S. pyogenes 1079” value in assay [2] was 16 µg/mL (≈ 19.7 µM). Further, in assay [3], the “MIC S. pneumo. 1016” value is below 0.06 µg/mL. The “MIC S. pneumo. 1175” value in assay [4] came to 0.25 µg/mL (≈ 0.308 µM). Besides, the “MIC S. pneumo. 1095” value in assay [5] stood at 0.12 µg/mL (≈ 0.148 µM).
As for `CCC1OC(=O)C(C)C(=O)C(C)C(OC2OC(C)CC(N(C)C)C2O)C(C)(OC)CC(C)C(=O)C(C)C2N(CC3CN(Cc4cnn(-c5cccc(F)c5)c4)C3)C(=O)OC12C` (stereo not shown) [4.21], in assay [1], the “MIC H. influenzae 1218” value worked out at 0.5 µg/mL (≈ 0.584 µM). For the same compound, the “MIC S. pyogenes 1079” value in assay [2] turned out to be 64 µg/mL (≈ 74.8 µM). Besides, the “MIC S. pneumo. 1016” value in assay [3] is below 0.06 µg/mL. Also, the “MIC S. pneumo. 1175” value in assay [4] was below 0.06 µg/mL. Also, the “MIC S. pneumo. 1095” value in assay [5] worked out at 2 µg/mL (≈ 2.34 µM).
For `CCC1OC(=O)C(C)C(=O)C(C)C(OC2OC(C)CC(N(C)C)C2O)C(C)(OC)CC(C)C(=O)C(C)C2N(CC3CN(Cc4n[nH]c5ccccc45)C3)C(=O)OC12C` (stereo not shown) [4.22], the “MIC H. influenzae 1218” value in assay [1] was 0.12 µg/mL (≈ 0.148 µM). The “MIC S. pyogenes 1079” value in assay [2] turned out to be 32 µg/mL (≈ 39.4 µM). Besides, in assay [3], the “MIC S. pneumo. 1016” value is below 0.06 µg/mL. Moreover, the “MIC S. pneumo. 1175” value in assay [4] turned out to be 0.25 µg/mL (≈ 0.308 µM). For the same compound, the “MIC S. pneumo. 1095” value in assay [5] is 2 µg/mL (≈ 2.46 µM).
On the same counts, the results for `CCC1OC(=O)C(C)C(=O)C(C)C(OC2OC(C)CC(N(C)C)C2O)C(C)(OC)CC(C)C(=O)C(C)C2N(CC3CN(Cc4n[nH]c5cc(Cl)ccc45)C3)C(=O)OC12C` (stereo not shown) [4.23] are below 0.06 µg/mL, 16 µg/mL (≈ 18.9 µM), below 0.06 µg/mL, 0.12 µg/mL (≈ 0.142 µM) and 4 µg/mL (≈ 4.73 µM).
As to `CCC1OC(=O)C(C)C(=O)C(C)C(OC2OC(C)CC(N(C)C)C2O)C(C)(OC)CC(C)C(=O)C(C)C2N(CC3CN(Cc4ccc5cnccn45)C3)C(=O)OC12C` (stereo not shown) [4.24], the “MIC H. influenzae 1218” value in assay [1] was 0.5 µg/mL (≈ 0.616 µM). Also, the “MIC S. pyogenes 1079” value in assay [2] amounted to 64 µg/mL (≈ 78.8 µM). Also, in assay [3], the “MIC S. pneumo. 1016” value was below 0.06 µg/mL. The “MIC S. pneumo. 1175” value in assay [4] was below 0.06 µg/mL. The “MIC S. pneumo. 1095” value in assay [5] came out at 0.5 µg/mL (≈ 0.616 µM).
For `CCC1OC(=O)C(C)C(=O)C(C)C(OC2OC(C)CC(N(C)C)C2O)C(C)(OC)CC(C)C(=O)C(C)C2N(CC3CN(Cc4ccc5nccn5c4)C3)C(=O)OC12C` (stereo not shown) [4.25], the “MIC H. influenzae 1218” value in assay [1] is 0.62 µg/mL (≈ 0.764 µM). Moreover, the “MIC S. pyogenes 1079” value in assay [2] was found to be 64 µg/mL (≈ 78.8 µM). Further, the “MIC S. pneumo. 1016” value in assay [3] was below 0.06 µg/mL. Besides, the “MIC S. pneumo. 1175” value in assay [4] worked out at 0.31 µg/mL (≈ 0.382 µM). In assay [5], the “MIC S. pneumo. 1095” value was determined as 0.38 µg/mL (≈ 0.468 µM).
